Assay results: patent US8349553B2, “Jasmonate based assays for identifying compounds that selectively inhibit mitochondrial bound hexokinases” (Ramot at Tel Aviv University Ltd., priority 2007, dated 2013)

Tests used:
Molt-4 cells = assay: Cellular ATP levels (CellTiter-Glo), Molt-4; format: cell-based, human; details: 60 minutes of exposure, various concentrations
Description: The CellTiter-Glo™ Luminescent Cell Viability Assay (Promega, Madison, Wis., U.S.A.) was employed (Fingrut, 2005). Upon completion of a given experiment, plates were equilibrated to room temperature. CellTiter-Glo™ reagent containing luciferin and luciferase was added to each well and the plates were mixed on an orbital shaker for 2 minutes to induce cell lysis. In the presence of ATP, Mg^2+ and molecular oxygen, mono-oxidation of luciferin is catalyzed by luciferase, generating a luminescence signal. Cells were then incubated for 10 minutes at room temperature to stabilize the luminescence signal. Luminescence was recorded using Kodak digital science—Image station 440 CD. Luminescence is directly proportional to ATP concentration. ATP depletion (% of control) was calculated in the following way: {(luminescence of control cells−luminescence of drug-treated cells)/luminescence of control cells}×100. In order to test the correlation between cellular ATP levels and the release of hexokinase from mitochondrial fraction different cancer cells, namely Molt-4 cells, BCL-1 leukemic cells and B16 melanoma tumors were exposed to various methyl jasmonate concentrations. […] CT26 and Molt-4 cells were then seeded in 24 well plates. CT26 cells were allowed to adhere over night. Cells were exposed to methyl jasmonate (MJ; 3 mM) for 1 hour. Trypan blue exclusion test was performed and cells were counted.

[1] = Solubility in SPR running buffer; format: physicochemical; details: PBS X 1 with 0.005% Tween and 5% DMSO
Description: SPR using ProteOn-EP5 (Bio-Rad, Hercules, Calif., USA) system has been applied to study the direct interaction of methyl jasmonate with hexokinase. This system allowed measuring ligand-analyte interactions in a 6×6 format in real time. Purified rat brain HKI and rabbit immunoglobulin G (Rb IgG; ligands) were diluted in 10 mM Na acetate pH 4 and 4.5, respectively, and coupled to a GLM sensor surface activated with 37.5 mg/ml N-Ethyl-N′-(3′ dimethylaminopropyl) carbodiimide hydrochloride and 7.5 mg/ml N-hydroxysuccinimide. HKI and IgG were added to saturate the chip at 100 μg/ml. Remaining reactive groups on the chip were then inactivated with 1 M ethanolamine pH 8.5. […] Methyl jasmonate and jasmonic acid (analytes) were diluted in running buffer (PBS X 1 with 0.005% Tween and 5% DMSO) and injected onto the sensor chip at varying concentrations. All experiments were performed at flow rate of 50 μl/min, at 25° C.

[2] = test system: HKI and HKII (mitochondrial fraction of BCL-1); assay: Western blot of supernatants with anti-HKI and anti-HKII, BCL-1 mitochondrial fraction; format: biochemical, murine; details: BCL-1 mitochondrial fraction supernatant
Description: For analysis of hexokinase levels, the experiments were performed similarly to hexokinase detachment assay described above, and unbound hexokinase in the supernatant fraction was extracted as described in Fingrut (2005). Samples were separated by sodium dodecylsulfate-polyacrylamide gel (7%) electrophoresis followed by immunoblotting. The blots were probed with specific anti-HKI or anti-HKII antibodies (1:300, Santa-Cruz Biotechnology, CA, USA). Hexokinase-antibody complexes were stained with HRP-conjugated antibody (1:10,000, Santa-Cruz Biotechnology, CA, USA). Enhanced chemiluminescence (ECL) reagent (Biological Industries, Beit Haemek, Israel) was added, and the blots were exposed to ECL film (Eastman Kodak, Rochester, N.Y., USA). Hexokinase detachment from mitochondrial fraction is not limited to CT-26 colon carcinoma. Mitochondrial fractions isolated from different cancer cells, namely Molt-4 cells, BCL-1 leukemic cells and B16 melanoma tumors were incubated for 30 minutes at 37° C., and the activity of unbound hexokinase was measured and compared to the activity of spontaneously (control) detached hexokinase. […] The supernatant of the experiments were separated on SDS-PAGE and probed with anti-HKI and anti-HKII antibodies.

[3] = target: T1, hexokinase-I-Voltage dependent anion channel interactions (Rattus norvegicus, UniProt P05708); assay: Voltage-dependent anion channel recording in planar lipid bilayer after addition of hexokinase-I; format: biochemical; details: 3 mM, HK-I 20 mU/ml, recorded after 10 minutes
T1 construct: from tissue; host or cells: HK-I from rat brain mitochondria; VDAC from rat liver mitochondria
T1 sequence (P05708 whole entry): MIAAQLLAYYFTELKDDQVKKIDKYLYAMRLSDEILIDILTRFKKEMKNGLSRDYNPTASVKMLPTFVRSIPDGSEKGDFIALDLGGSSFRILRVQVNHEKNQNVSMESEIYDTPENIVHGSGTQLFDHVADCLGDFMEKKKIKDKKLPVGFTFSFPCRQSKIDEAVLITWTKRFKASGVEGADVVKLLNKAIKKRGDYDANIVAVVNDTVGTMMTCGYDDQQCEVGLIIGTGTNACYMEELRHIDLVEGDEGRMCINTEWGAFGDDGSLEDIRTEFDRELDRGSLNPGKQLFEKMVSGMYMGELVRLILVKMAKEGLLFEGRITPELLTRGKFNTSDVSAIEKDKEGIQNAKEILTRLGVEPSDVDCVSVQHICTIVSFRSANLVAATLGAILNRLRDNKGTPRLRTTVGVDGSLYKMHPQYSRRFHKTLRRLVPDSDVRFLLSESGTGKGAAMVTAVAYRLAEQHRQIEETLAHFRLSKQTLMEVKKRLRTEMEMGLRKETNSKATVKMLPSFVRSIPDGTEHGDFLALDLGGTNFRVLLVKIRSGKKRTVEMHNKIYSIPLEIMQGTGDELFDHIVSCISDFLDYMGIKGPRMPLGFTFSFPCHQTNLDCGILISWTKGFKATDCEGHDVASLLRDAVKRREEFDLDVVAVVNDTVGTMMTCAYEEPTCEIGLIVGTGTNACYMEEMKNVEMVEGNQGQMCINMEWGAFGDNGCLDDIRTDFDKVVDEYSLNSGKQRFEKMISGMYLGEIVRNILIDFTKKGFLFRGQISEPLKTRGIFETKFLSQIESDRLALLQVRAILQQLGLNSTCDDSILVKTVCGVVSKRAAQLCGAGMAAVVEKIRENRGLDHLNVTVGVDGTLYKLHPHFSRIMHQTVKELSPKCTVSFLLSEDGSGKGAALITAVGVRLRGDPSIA
Description: Currents were measured with respect to the trans side of the membrane (ground).

CC/C=C\CC1C(=O)CCC1CC(=O)OC (centres unmarked) [methyl jasmonate]
cellular ATP level (Molt-4 cells): significant and dose-dependent decrease of cellular ATP | solubility in the running buffer [1]: limited solubility | detachment of hexokinase confirmed by immunoblot (anti-HKI, anti-HKII) [2]: detachment of hexokinase from mitochondrial fraction of the various cancer cells was further confirmed | effect on HK-I-induced low-conducting state of voltage-dependent anion channel ([3]; −20 mV): reversed by the addition of methyl jasmonate | effect on HK-I-closed voltage-dependent anion channel ([3]; −40 mV): led to re-opening of HK-I-closed channels
